The source of these data is paper PMC10175918 (Communications Biology, 2023).

Like-named read-outs stand apart in the source and are kept apart here.

What all share (assay): TGFα-shedding assay-based GPCR screening with chimeric Gα subunit proteins
Holding throughout (format): cell-based

Experiment [1] has as its target T1, 348 GPCRs (Homo sapiens, UniProt P18089).
T1 construct: expressed in transfected cells; host or cells: HEK293A
T1 sequence (P18089 1-450): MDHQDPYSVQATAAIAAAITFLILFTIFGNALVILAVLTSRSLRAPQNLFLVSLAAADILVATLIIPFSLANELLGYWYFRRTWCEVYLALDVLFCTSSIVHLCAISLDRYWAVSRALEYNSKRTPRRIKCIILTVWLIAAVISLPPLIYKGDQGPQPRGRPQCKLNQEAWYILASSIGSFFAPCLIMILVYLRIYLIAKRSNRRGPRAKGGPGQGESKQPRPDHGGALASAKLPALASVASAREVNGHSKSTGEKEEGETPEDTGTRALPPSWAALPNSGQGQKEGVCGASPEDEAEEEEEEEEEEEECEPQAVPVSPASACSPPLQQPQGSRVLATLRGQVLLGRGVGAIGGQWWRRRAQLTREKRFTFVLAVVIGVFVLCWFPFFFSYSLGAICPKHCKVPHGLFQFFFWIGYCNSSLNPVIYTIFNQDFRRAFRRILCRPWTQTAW

For experiment [2], the target named is T2, 348 GPCRs (Homo sapiens, UniProt Q9BY21).
T2 construct: expressed in transfected cells; host or cells: HEK293A
The conditions noted are these: 10µM, Favipiravir 100μM.

Experiment [3] concerns the target T3, 348 GPCRs (Homo sapiens, UniProt O00254).
T3 construct: expressed in transfected cells; host or cells: HEK293A
T3 sequence (O00254 22-374): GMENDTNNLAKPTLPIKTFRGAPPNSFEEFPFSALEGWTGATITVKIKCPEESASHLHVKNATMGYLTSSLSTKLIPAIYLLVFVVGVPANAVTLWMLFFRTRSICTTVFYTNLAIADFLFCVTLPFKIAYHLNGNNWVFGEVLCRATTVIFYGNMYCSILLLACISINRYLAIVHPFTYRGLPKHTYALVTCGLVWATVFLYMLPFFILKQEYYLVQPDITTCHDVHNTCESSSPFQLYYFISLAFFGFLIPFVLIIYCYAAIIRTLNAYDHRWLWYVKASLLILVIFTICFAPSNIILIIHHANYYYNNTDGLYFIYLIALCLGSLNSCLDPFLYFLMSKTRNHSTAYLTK
The conditions noted are these: 10µM, Favipiravir 100μM.

Experiment [4] has as its target T4, 348 GPCRs (Homo sapiens, UniProt P04001).
T4 construct: expressed in transfected cells; host or cells: HEK293A
T4 sequence (P04001 1-364): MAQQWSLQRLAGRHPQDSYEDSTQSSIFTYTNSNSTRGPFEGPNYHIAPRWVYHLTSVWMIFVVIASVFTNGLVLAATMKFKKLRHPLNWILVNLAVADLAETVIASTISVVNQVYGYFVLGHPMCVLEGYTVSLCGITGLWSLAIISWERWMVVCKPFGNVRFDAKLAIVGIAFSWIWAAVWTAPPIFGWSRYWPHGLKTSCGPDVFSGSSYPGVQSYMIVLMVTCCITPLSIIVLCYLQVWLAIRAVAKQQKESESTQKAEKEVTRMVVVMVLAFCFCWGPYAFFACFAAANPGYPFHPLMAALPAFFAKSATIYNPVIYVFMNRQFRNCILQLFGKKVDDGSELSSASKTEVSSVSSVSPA
The conditions noted are these: 10µM, Favipiravir 100μM.

Experiment [5] deals with T5, 348 GPCRs (Homo sapiens, UniProt P30939).
T5 construct: expressed in transfected cells; host or cells: HEK293A
T5 sequence (P30939 1-366): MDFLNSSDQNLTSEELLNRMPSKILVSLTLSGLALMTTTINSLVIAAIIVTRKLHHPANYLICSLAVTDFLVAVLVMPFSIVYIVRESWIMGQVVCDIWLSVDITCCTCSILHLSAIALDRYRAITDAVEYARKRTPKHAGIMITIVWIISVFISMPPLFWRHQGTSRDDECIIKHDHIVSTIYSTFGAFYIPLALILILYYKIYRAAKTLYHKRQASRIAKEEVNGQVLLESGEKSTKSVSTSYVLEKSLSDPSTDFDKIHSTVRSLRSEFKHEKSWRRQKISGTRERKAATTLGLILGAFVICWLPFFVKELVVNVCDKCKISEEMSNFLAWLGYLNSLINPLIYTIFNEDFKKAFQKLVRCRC
The settings on record: 5-HT1F (5-hydroxytryptamine receptor 1F); 10µM, Favipiravir 100μM.

Experiment [6] deals with 348 GPCRs (Homo sapiens, UniProt P21554). The conditions noted are these: read-out: % GPCR activation compared to TPA, CB1 (cannabinoid receptor 1); 10µM, Favipiravir 100μM.
In experiment [7] the target is T6, 348 GPCRs (Homo sapiens, UniProt Q8NDV2).
T6 construct: expressed in transfected cells; host or cells: HEK293A
The settings on record: 10µM, Favipiravir 100μM.

Experiment [8] concerns the target T7, 348 GPCRs (Homo sapiens, UniProt P29274).
T7 construct: expressed in transfected cells; host or cells: HEK293A
The settings on record: ADORA2A (adenosine A2a receptor); 10µM, Favipiravir 100μM.

The target of experiment [9] is T8, 348 GPCRs (Homo sapiens, UniProt P47890).
T8 construct: expressed in transfected cells; host or cells: HEK293A
T8 sequence (P47890 1-313): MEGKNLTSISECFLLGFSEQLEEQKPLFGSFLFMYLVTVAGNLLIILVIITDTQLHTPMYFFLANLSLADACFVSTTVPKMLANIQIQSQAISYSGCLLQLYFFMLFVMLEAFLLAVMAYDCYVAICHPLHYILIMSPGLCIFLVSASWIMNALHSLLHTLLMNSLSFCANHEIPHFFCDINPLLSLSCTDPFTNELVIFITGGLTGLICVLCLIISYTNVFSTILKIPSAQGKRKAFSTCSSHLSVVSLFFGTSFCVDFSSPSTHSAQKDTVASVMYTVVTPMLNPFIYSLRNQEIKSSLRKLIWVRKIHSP
The settings on record: 10µM, Favipiravir 100μM.

Experiment [10] has as its target T9, 348 GPCRs (Homo sapiens, UniProt P50391).
T9 construct: expressed in transfected cells; host or cells: HEK293A
The conditions noted are these: 10µM, Favipiravir 100μM.

The target of experiment [11] is T10, 348 GPCRs (Homo sapiens, UniProt Q9NZD1).
T10 construct: expressed in transfected cells; host or cells: HEK293A
The settings on record: 10µM, Favipiravir 100μM.

[12] abbreviates: read-out: % GPCR activation compared to TPA, GPCR α2B (adrenoceptor alpha 2B).
[13] abbreviates: read-out: % GPCR activation compared to TPA, GPR87 (G Protein-Coupled Receptor 87).
Setting [14] is: read-out: % GPCR activation compared to TPA, F2RL2 (coagulation factor II (thrombin) receptor-like 2).
Where [15] appears, read: read-out: % GPCR activation compared to TPA, OPN1MW (opsin 1 (cone pigments), medium-wave-sensitive).
Where [16] appears, read: read-out: % GPCR activation compared to TPA, GPR26 (G Protein-Coupled Receptor 26).
Where [17] appears, read: read-out: % GPCR activation compared to TPA, OR1G1 (olfactory receptor, family 1, subfamily G, member 1).
Setting [18] is: read-out: % GPCR activation compared to TPA, NPY4R (neuropeptide Y receptor Y4).
The mark [19] stands for this setting: read-out: % GPCR activation compared to TPA, GPRC5D (G protein-coupled receptor class C group 5 member D).
Setting [20] is: GPR87 (G Protein-Coupled Receptor 87), read-out: % GPCR activation compared to TPA.
Where [21] appears, read: F2RL2 (coagulation factor II (thrombin) receptor-like 2), read-out: % GPCR activation compared to TPA.
Where [22] appears, read: OPN1MW (opsin 1 (cone pigments), medium-wave-sensitive), read-out: % GPCR activation compared to TPA.
[23] abbreviates: GPR26 (G Protein-Coupled Receptor 26), read-out: % GPCR activation compared to TPA.
Where [24] appears, read: OR1G1 (olfactory receptor, family 1, subfamily G, member 1), read-out: % GPCR activation compared to TPA.
The mark [25] stands for this setting: NPY4R (neuropeptide Y receptor Y4), read-out: % GPCR activation compared to TPA.
Setting [26] is: GPRC5D (G protein-coupled receptor class C group 5 member D), read-out: % GPCR activation compared to TPA.
The mark [27] stands for this setting: GPCR α2B (adrenoceptor alpha 2B), read-out: % GPCR activation compared to TPA.

T6 sequence (Q8NDV2 whole entry): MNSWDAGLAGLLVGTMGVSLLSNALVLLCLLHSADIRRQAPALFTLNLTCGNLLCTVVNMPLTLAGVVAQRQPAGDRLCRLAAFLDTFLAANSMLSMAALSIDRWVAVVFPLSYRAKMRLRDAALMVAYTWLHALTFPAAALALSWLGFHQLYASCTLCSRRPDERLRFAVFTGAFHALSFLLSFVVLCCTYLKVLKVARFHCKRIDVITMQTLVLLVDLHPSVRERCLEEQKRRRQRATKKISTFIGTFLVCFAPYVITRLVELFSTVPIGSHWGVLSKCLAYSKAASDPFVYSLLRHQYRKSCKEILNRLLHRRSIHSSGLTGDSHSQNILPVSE
T10 sequence (Q9NZD1 whole entry): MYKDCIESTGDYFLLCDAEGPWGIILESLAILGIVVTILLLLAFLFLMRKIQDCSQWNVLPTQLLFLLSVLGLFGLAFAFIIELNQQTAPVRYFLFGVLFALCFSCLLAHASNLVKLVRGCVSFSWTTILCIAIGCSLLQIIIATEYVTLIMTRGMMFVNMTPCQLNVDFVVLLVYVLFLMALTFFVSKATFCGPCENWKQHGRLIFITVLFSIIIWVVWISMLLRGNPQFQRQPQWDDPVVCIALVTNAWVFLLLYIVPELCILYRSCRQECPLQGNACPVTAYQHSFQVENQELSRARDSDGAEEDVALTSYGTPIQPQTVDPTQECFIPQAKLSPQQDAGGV
T7 sequence (P29274 whole entry): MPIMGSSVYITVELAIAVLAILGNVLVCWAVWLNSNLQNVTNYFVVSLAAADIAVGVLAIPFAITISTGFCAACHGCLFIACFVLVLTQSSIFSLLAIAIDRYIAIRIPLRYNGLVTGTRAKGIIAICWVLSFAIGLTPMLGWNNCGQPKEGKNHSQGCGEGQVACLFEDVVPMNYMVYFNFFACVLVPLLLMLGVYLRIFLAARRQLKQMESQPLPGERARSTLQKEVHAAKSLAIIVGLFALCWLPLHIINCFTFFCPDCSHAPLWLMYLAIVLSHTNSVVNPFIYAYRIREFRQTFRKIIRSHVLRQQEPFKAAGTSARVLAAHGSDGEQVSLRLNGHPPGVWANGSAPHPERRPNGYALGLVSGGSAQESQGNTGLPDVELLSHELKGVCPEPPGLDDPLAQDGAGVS
348 GPCRs (Homo sapiens, UniProt P21554), sequence (P21554 whole entry): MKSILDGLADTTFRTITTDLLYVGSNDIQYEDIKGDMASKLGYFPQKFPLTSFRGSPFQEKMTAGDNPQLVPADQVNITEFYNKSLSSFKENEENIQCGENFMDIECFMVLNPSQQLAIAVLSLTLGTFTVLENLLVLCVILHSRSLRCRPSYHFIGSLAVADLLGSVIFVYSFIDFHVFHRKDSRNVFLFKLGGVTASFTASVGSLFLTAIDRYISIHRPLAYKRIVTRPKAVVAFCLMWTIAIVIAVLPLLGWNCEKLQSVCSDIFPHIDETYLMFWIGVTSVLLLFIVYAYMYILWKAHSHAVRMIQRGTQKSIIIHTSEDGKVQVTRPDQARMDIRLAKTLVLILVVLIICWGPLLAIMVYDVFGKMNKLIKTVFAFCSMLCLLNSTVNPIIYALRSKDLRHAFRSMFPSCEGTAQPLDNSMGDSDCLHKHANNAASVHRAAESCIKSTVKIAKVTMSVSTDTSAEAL
T9 sequence (P50391 whole entry): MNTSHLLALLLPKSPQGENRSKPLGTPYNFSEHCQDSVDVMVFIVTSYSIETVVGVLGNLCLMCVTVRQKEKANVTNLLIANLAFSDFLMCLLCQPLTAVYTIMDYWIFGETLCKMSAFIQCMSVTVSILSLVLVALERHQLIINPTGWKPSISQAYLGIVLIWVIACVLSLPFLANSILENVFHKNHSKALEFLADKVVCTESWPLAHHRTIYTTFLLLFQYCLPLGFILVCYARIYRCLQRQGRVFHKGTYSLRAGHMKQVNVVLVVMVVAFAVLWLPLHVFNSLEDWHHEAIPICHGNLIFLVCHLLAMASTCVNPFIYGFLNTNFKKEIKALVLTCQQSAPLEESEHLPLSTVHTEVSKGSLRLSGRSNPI
T2 sequence (Q9BY21 whole entry): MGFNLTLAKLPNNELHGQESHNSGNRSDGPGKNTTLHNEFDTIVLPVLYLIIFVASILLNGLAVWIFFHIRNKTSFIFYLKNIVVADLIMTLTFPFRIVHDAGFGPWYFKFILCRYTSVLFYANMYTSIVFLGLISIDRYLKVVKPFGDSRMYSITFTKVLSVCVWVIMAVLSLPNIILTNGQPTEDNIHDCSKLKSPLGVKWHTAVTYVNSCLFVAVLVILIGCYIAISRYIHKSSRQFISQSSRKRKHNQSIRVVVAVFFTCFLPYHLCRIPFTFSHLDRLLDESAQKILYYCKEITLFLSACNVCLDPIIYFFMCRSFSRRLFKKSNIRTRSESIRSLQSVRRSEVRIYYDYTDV

In the case of `CC(C)OC(=O)[C@H](C)N[P@](=O)(OC[C@H]1O[C@@H](n2ccc(=O)[nH]c2=O)[C@](C)(F)[C@@H]1O)Oc1ccccc1` [sofosbuvir], the activation at 10 µM is 0.619% on 348 GPCRs [1] (setting [12]), 1.05% on 348 GPCRs [3] (setting [14]), -2.98% at 348 GPCRs [9] (setting [17]) and 0.492% at 348 GPCRs [11] (setting [19]). The activation at 100 µM at 348 GPCRs [2] (setting [13]) is 2.98%; at 348 GPCRs [4] (setting [15]) it was -1.41%; at 348 GPCRs [6], -1.13%; on 348 GPCRs [7] (setting [16]) it was 0.171%; on 348 GPCRs [10] (setting [18]), -0.849%. Moreover, the “% GPCR activation compared to TPA” value is reported as -0.8157% at 348 GPCRs [5] and -2.149% at 348 GPCRs [8].
For the compound `NC(=O)c1nc(F)cnc1O` [favipiravir, 6-fluoro-3-hydroxy-2-pyrazinecarboxamide], the activation at 100 µM is -4.03% at 348 GPCRs [1] (GPCR α2B (adrenoceptor alpha 2B), 100μM, read-out: % GPCR activation compared to TPA); -4.67% at 348 GPCRs [2] (setting [20]); -0.549% on 348 GPCRs [4] (setting [22]); 1.89% on 348 GPCRs [6]; -0.29% at 348 GPCRs [7] (setting [23]); -2.23% at 348 GPCRs [10] (setting [25]). The activation at 10 µM on 348 GPCRs [3] (setting [21]) is -0.958%; at 348 GPCRs [9] (setting [24]) it was 0.965%; on 348 GPCRs [11] (setting [26]) it was -2.09%. Besides, the “% GPCR activation compared to TPA” value on 348 GPCRs [5] worked out at 1.629%; on 348 GPCRs [8], 2.3424%.
As to `CCC(CC)COC(=O)[C@H](C)N[P@](=O)(OC[C@H]1O[C@@](C#N)(c2ccc3c(N)ncnn23)[C@H](O)[C@@H]1O)Oc1ccccc1` [remdesivir], the activation at 10 µM is 5.93% at 348 GPCRs [1] (setting [12]), -1.15% at 348 GPCRs [3] (setting [14]), -1.69% on 348 GPCRs [9] (setting [17]) and -0.473% at 348 GPCRs [11] (setting [19]). Further, the activation at 100 µM was -0.159% on 348 GPCRs [2] (setting [13]); 1.48% at 348 GPCRs [4] (setting [15]); -4.06% on 348 GPCRs [6]; 0.188% on 348 GPCRs [7] (setting [16]); -1.2% at 348 GPCRs [10] (setting [18]). Also, the “% GPCR activation compared to TPA” value is -2.148% on 348 GPCRs [5] and 3.955% at 348 GPCRs [8].
On to `N#C[C@@]1(c2ccc3c(N)ncnn23)O[C@H](CO)[C@@H](O)[C@H]1O` [GS441524], for which the activation at 10 µM on 348 GPCRs [1] (setting [27]) is -2.28%; at 348 GPCRs [3] (setting [21]) it was -2.64%; at 348 GPCRs [9] (setting [24]), -1.68%; on 348 GPCRs [11] (setting [26]), -1.93%. Further, the activation at 100 µM was -3.93% at 348 GPCRs [2] (setting [20]); -1.4% on 348 GPCRs [4] (setting [22]); 0.0409% at 348 GPCRs [6]; -0.116% on 348 GPCRs [7] (setting [23]); -1.48% at 348 GPCRs [10] (setting [25]). Further, the results for the “% GPCR activation compared to TPA” value on 348 GPCRs [5] and at 348 GPCRs [8] were 0.3563% and 1.631%, respectively.
On to `CC(C)C(=O)OC[C@H]1O[C@@H](n2ccc(NO)nc2=O)[C@H](O)[C@@H]1O` [molnupiravir], for which the activation at 10 µM at 348 GPCRs [1] (setting [27]) was -2.53%; at 348 GPCRs [3] (setting [21]) it was -1.18%; on 348 GPCRs [9] (setting [24]) it was -3.31%; at 348 GPCRs [11] (setting [26]) it was -0.168%. The activation at 100 µM on 348 GPCRs [2] (setting [20]) is 0.11%; at 348 GPCRs [4] (setting [22]), -0.857%; on 348 GPCRs [6], -1.3%; on 348 GPCRs [7] (setting [23]) it was -0.581%; at 348 GPCRs [10] (setting [25]), -1.31%. In addition, the “% GPCR activation compared to TPA” value at 348 GPCRs [5] was 0.7188%; at 348 GPCRs [8] it was -1.952%.
